In publication PMC4926143 (Toxins, 2016):
≈ marks a conversion by molar mass, not a printed value. Entries after “also recorded” stand apart in the source; their conditions may differ. Where two headings read alike, the source gives them in different places.

Legend:
A. flavus ATCC 9170 = tested on: A. flavus ATCC 9170; parameters: method as in PMID 19232493; conditions: cited from earlier work
[1] = tested on: Aspergillus flavus IMF 47798; assay type: cell-based
[2] = target: T1, bovine heart mitochondrial complex II (Bos taurus, UniProt P31039+P35720+Q3T189+Q95123); test: MitoCheck Complex II Activity Assay (succinate dehydrogenase activity); assay type: biochemical; conditions: bovine heart mitochondria
T1 construct: bovine heart mitochondrial complex II; purchased Cayman Chemical; host or cells: bovine heart mitochondria (native tissue preparation supplied in the kit)
T1 sequence (P31039 44-665): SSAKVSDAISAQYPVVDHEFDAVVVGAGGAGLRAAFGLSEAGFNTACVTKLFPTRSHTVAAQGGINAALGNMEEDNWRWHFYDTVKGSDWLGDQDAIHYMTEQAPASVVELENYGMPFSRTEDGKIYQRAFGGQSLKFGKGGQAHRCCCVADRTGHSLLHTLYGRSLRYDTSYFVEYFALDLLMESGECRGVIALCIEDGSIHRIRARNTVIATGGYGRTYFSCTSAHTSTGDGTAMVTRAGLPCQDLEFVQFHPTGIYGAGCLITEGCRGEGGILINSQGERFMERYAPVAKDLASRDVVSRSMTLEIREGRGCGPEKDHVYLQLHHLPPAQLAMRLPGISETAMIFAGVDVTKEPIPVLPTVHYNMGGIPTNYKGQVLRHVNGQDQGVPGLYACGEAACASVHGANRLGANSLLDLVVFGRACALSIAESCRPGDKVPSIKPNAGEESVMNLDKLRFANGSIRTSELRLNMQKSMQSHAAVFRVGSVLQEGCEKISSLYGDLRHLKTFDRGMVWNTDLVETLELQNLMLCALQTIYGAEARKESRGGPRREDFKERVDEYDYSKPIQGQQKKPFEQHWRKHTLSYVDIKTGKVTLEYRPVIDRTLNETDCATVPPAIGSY
T1 sequence (Q3T189 29-280): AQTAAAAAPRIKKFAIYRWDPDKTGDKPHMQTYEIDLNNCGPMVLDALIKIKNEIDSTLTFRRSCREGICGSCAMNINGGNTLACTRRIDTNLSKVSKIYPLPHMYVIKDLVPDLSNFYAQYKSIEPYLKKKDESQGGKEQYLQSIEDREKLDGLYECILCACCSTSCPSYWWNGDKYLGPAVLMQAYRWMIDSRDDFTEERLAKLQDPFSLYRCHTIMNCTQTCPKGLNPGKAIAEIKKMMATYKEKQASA
T1 sequence (P35720 30-169): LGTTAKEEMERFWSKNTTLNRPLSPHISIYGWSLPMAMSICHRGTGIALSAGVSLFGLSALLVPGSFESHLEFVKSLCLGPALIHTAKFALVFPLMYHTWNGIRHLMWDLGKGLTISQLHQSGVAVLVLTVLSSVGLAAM
T1 sequence (Q95123 56-158): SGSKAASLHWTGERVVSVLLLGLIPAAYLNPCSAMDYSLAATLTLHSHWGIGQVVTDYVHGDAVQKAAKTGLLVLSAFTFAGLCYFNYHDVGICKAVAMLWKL

aflR and pksA mRNA = test: RT-qPCR of aflR and pksA mRNA levels in A. flavus; assay type: cell-based, Aspergillus flavus; conditions: 0.05 mM, normalized to β-tubulin mRNA
Method: To test the effects of three octyl esters on the mRNA levels of aflR and pksA, A. flavus was cultured with octyl syringate (8), octyl paraben (12), or octyl gallate (14) at the concentrations of 0.05 mM. Subsequently, aflR and pksA mRNA levels were examined by quantitative PCR.
The lyophilized mycelia were ground under liquid nitrogen using a mortar and pestle. Total RNA was extracted with TRIzol reagent (Thermo Fisher Scientific, Waltham, MA, USA) and purified with the PureLink RNA Mini Kit (Thermo Fisher Scientific), according to manufacturer’s protocol. The cDNA was prepared with the ReverTra Ace qPCR RT Master Mix (TOYOBO, Osaka, Japan), according to manufacturer’s protocol. The cDNA derived from 0.05 μg of total RNA was used as a qPCR template. qPCR was carried out using FastStart Universal SYBR Green Master (Rox) (Roche, Basel, Switzerland) in a final volume of 25 μL for each reaction and an ABI 7300 Real-Time PCR System (Thermo Fisher Scientific). Two-step PCR conditions were as follows: after an initial incubation at 95 °C for 10 min, 40 cycles of 95 °C for 15 s and 60 °C for 1 min were performed. The amount of aflR and pksA mRNA were normalized to the amount of β-tubulin mRNA (control gene) in each sample. PCR primers used for each gene were as follows: β-tubulin 5′-[…]-3′ and 5′-[…]-3′; AflR 5′-[…]-3′ and 5′-[…]-3′; pksA 5′-[…]-3′ and 5′-[…]-3′.

[3] = tested on: Aspergillus flavus IMF 47798; assay type: cell-based; remark: listed apart in the source
aflatoxin production = conditions: cited from earlier work
A. flavus = conditions: cited from earlier work
[4] = read-out: IC50, mitochondrial complex II

## CCCCCCCCOC(=O)c1cc(O)c(O)c(O)c1 [compound 14, Octyl gallate]
A. flavus ATCC 9170
  minimum inhibitory concentration (MIC): 0.063 mM (≈ 17.8 µg/mL)
[1]
  effect on fungal growth: did not affect fungal growth
  effect on mycelial weight: reduced the mycelial weight
[2]; [4]
  IC50: 0.29 mM
aflR and pksA mRNA
  aflR mRNA level: None of the three octyl esters affected
  pksA mRNA level: None of the three octyl esters affected
[3]
  aflatoxin production inhibitory activity after five and six days of cultivation: maintained
  inhibition of aflatoxin production: as strongly as octyl syringate (8) and octyl paraben (12); also recorded: strongly inhibited

## CCOC(=O)c1cc(OC)c(O)c(OC)c1 [compound 2, Ethyl syringate]
[2]; highest concentration 20 mM, read-out: IC50, mitochondrial complex II (symbol)
  IC50: > 20 mM
[3]
  inhibition of aflatoxin production: did not inhibit aflatoxin production

## CCCCCCCOC(=O)c1ccc(O)cc1 [compound 11, heptyl paraben]
[1]
  effect on fungal growth: did not affect fungal growth
[3]
  aflatoxin production inhibitory activity after five and six days of cultivation: maintained
  inhibition of aflatoxin production: strong

## CCCOC(=O)c1cc(OC)c(O)c(OC)c1 [compound 3, propyl syringate]
[2]; [4]
  IC50: > 20 mM
[3]
  inhibition of aflatoxin production: did not inhibit aflatoxin production

## CCCCOC(=O)c1cc(OC)c(O)c(OC)c1 [compound 4, butyl syringate]
[2]; [4]
  IC50: 9.7 mM
[3]
  inhibition of aflatoxin production: strong inhibitory activity

## Cc1ccccc1C(=O)Nc1cccc(OC(C)C)c1 [mepronil]
Aflatoxin production
  inhibition of aflatoxin production by complex II inhibitors: inhibited aflatoxin production with selectivity

## Cc1cc(O)c2c(c1)O[C@@]1(C)CC[C@H]3C(C)(C)CCC[C@]34CO[C@@H]2[C@H]41 [siccanin]
Aflatoxin production
  inhibition of aflatoxin production by complex II inhibitors: inhibited aflatoxin production with selectivity

## COc1[nH]c(=O)c(C(=O)[C@@H](C)C[C@H](C)[C@@H](Cl)CCl)c(O)c1OC [atpenin A5]
Aflatoxin production
  inhibition of aflatoxin production by complex II inhibitors: inhibited aflatoxin production with selectivity

## CCOC(=O)c1ccc(O)cc1 [compound 9, ethyl paraben]
[3]
  aflatoxin production inhibitory activity (comparison in words): weak

## O=C(Nc1ccccc1-c1ccc(Cl)cc1)c1cccnc1Cl [boscalid]
[2]; [4]
  IC50: 0.019 mM
Aflatoxin production
  inhibition of aflatoxin production by complex II inhibitors: inhibited aflatoxin production with selectivity
Aflatoxin production; read-out: IC50 of aflatoxin production inhibition
  IC50: < 10 nM

## CCCCCOC(=O)c1cc(OC)c(O)c(OC)c1 [compound 5, pentyl syringate]
[2]; [4]
  IC50: 2.8 mM
[3]
  inhibition of aflatoxin production: inhibited aflatoxin production very strongly

## CCCCCCOC(=O)c1cc(OC)c(O)c(OC)c1 [compound 6, hexyl syringate]
[2]; [4]
  IC50: 1.1 mM
[3]
  inhibition of aflatoxin production: inhibited aflatoxin production very strongly

## CCCCCCCCOC(=O)c1cc(OC)c(O)c(OC)c1 [compound 8, Octyl syringate]
[1]
  fungal mycelial weight after five and six days of cultivation: without changing
[2]; [4]
  IC50: 0.34 mM
aflR and pksA mRNA
  aflR mRNA level: None of the three octyl esters affected
  pksA mRNA level: None of the three octyl esters affected
[3]
  inhibition of aflatoxin production: inhibited aflatoxin production very strongly

## CCCCCCCOC(=O)c1cc(OC)c(O)c(OC)c1 [compound 7, heptyl syringate]
[2]; [4]
  IC50: 1.3 mM
[3]
  inhibition of aflatoxin production: inhibited aflatoxin production very strongly

## CCCOC(=O)c1ccc(O)cc1 [compound 10, Propyl paraben]
[2]; [4]
  IC50: > 20 mM
[3]
  aflatoxin production inhibitory activity (comparison in words): more strongly than propyl syringate (3) and propyl gallate (15); also recorded: much weaker than that of heptyl paraben (11) and octyl paraben (12)
A. flavus
  inhibition of aflatoxin production on a solid culture: inhibit aflatoxin production

## CCCCCCCCOC(=O)c1ccc(O)cc1 [compound 12, octyl paraben]
[1]
  effect on fungal growth: did not affect fungal growth
[2]; [4]
  IC50: 0.16 mM
aflR and pksA mRNA
  aflR mRNA level: None of the three octyl esters affected
  pksA mRNA level: None of the three octyl esters affected
[3]
  aflatoxin production inhibitory activity (comparison in words): strong
